Source: patent US6297267A, “4,5-diaryloxazole compounds” (Fujisawa Pharmaceutical Co., Ltd., priority 1997, dated 2001)

These compounds were tested on Human Platelet (assay: Inhibition of Human Platelet Aggregation Induced by ADP). Conditions: 2 min; Test Compound 1.0 × 10^-7 M; human platelet rich plasma; ADP 2.5 μM; 2 minutes at 37° C.
Assay type: cell-based
Description: Inhibition of Human Platelet Aggregation Induced by ADP
Human blood was collected from healthy volunteers and mixed with 1/10 volume of 3.8% sodium citrate solution, pH 7.4. The citrate blood was centrifuged at 150×g for 10 minutes and the platelet rich plasma (PRP) was removed. The remaining blood was centrifuged for a further 10 minutes at 1500×g to prepare the platelet poor plasma (PPP), which was used as a reference for platelet aggregation. Aggregation studies were carried out using HEMATRACER 801 (NBS, Japan), a 8 channel aggregometer. 25 μl of a solution of Test compound in Tris-acetate buffer pH 7.4 and 225 μl of PRP were mixed and stirred at 1000 rpm for 2 minutes at 37° C. Aggregation was induced by ADP (adenosin 5'-diphosphate) solution at the final concentration of 2.5 μM.
`O=C(O)COc1cccc(CC2(O)CCCC=C2c2nc(-c3ccccc3)c(-c3ccccc3)o2)c1` (stereo not drawn) [(1)] showed an inhibition at 0.1 µM of over 90%. Work on `O=C(O)COc1cccc(C[C@@H]2CCC(O)C=C2c2nc(-c3ccccc3)c(-c3ccccc3)o2)c1` (stereo partly drawn) [(2)] yielded an inhibition at 0.1 µM of over 90%. `O=C(O)COc1cccc(C[C@@H]2CCCC3OC32c2nc(-c3ccccc3)c(-c3ccccc3)o2)c1` (stereo partly drawn) [(3)] was tested, and the inhibition at 0.1 µM was over 90%.
